Like-named read-outs stand apart in the source and are kept apart here. Each block holds one compound with its values, some of them ahead of it.
What was measured:
[1] = tested on: human sandwich-cultured hepatocytes (SCH); conditions: for Accumulation Cells / Accumulation Cells + Bile / BEI: + 2 µM GF120918, 1 µM [3H]digoxin 10 min or 5 µM fexofenadine 30 min
[2] = tested on: perfused livers from Mrp2-deficient TR^− rats; experiment: In situ single-pass liver perfusion; type: in vivo, rat; conditions: GF120918 coadministration
[3] = tested on: rat isolated perfused livers; conditions: P-gp inhibitor erythromycin, ref [43]; cited from earlier work
human OATP1B1 = conditions: bosentan 100 µM, competitive, transfected CHO cells; ref [45]; cited from earlier work
human OATP1B3 = conditions: bosentan 100 µM, competitive, transfected CHO cells; ref [45]; cited from earlier work
human OATP2B1 = conditions: bosentan 100 µM, competitive, transfected CHO cells; ref [45]; cited from earlier work

- Accumulation Cells ([1]; Liver 1): 29.9 ± 1.6 pmol/mg
- Accumulation Cells + Bile ([1]; Liver 1): 26.2 ± 0.9 pmol/mg
- BEI ([1]; Liver 1): 0%
- Accumulation Cells ([1]; Liver 1, listed as [^3H]digoxin): 29.9 pmol/mg
- Accumulation Cells ([1]; Liver 2): 25.2 ± 1.6 pmol/mg
- Accumulation Cells + Bile ([1]; Liver 2): 23.4 ± 2.3 pmol/mg
- BEI ([1]; Liver 2): 0%
Structure (SMILES): C[C@H]1O[C@@H](O[C@H]2[C@@H](O)C[C@H](O[C@H]3[C@@H](O)C[C@H](O[C@H]4CC[C@@]5(C)[C@H](CC[C@@H]6[C@@H]5C[C@@H](O)[C@]5(C)[C@@H](C7=CC(=O)OC7)CC[C@]65O)C4)O[C@@H]3C)O[C@@H]2C)C[C@H](O)[C@@H]1O [[^3H]Digoxin, digoxin]

- Effect on fexofenadine BEI and in vitro biliary clearance ([1]; 2 µM GF120918, human SCH): not affected
- Effect on BEI and in vitro biliary clearance of [3H]digoxin ([1]; 2 µM GF120918, human SCH, both livers): abolished completely
- Fexofenadine Cl’biliary as % of control [2]: 27.5 % of control
Structure (SMILES): COc1cc2c(cc1OC)CN(CCc1ccc(NC(=O)c3cccc4c(=O)c5cccc(OC)c5[nH]c34)cc1)CC2 [GF120918, N-(4-[2-(1,2,3,4-tetrahydro-6,7-dimethoxy-2-isoquinolinyl)ethyl]-phenyl)-9,10-dihydro-5-methoxy-9-oxo-4-acridine carboxamide]

Structure (SMILES): CC[C@H]1OC(=O)[C@H](C)[C@@H](O[C@H]2C[C@@](C)(OC)[C@@H](O)[C@H](C)O2)[C@H](C)[C@@H](O[C@@H]2O[C@H](C)C[C@H](N(C)C)[C@H]2O)[C@](C)(O)C[C@@H](C)C(=O)[C@H](C)[C@@H](O)[C@]1(C)O [erythromycin]
- Effect on cumulative recovery of fexofenadine in bile [3]: decreased

Structure (SMILES): COc1ccccc1Oc1c(NS(=O)(=O)c2ccc(C(C)(C)C)cc2)nc(-c2ncccn2)nc1OCCO [bosentan]
- Inhibition of transport of model probes (human OATP1B1): ~ 40%
- Inhibition of transport of model probes (human OATP1B3): ~ 40%
- Inhibition of transport of model probes (human OATP2B1): ~ 40%

Reference: PMC3083979 (Pharmaceutical research, 2009)
